Measured values reported in patent US9090596B2, “Disubstituted 3,4-diamino-3-cyclobutene-1,2-dione compounds for use in the treatment of chemokine-mediated pathologies” (GALDERMA RESEARCH & DEVELOPMENT, priority 2011, dated 2015).

Assays:
CXCR1 receptor = CXCR1 receptor (Homo sapiens (Human), UniProt P25024); assay: β-arrestin 2 recruitment test, U2OS hCXCR1 β-arrestin cells stimulated with CXCL8; assay type: cell-based; conditions: CXCL8 stimulation
Protocol: (§1) The in vitro affinity of the compounds of the present invention for the CXCR1 and CXCR2 receptors was determined on a functional test of the β-arrestin recruitment type after receptor activation.
(§2) β-Arrestin Recruitment Assay:
(§3) “PathHunter HEK293-CXCR2” or “U2OS hCXCR1 β-arrestin” cells (DiscoveRx Corporation) were seeded overnight at 10 000 cells/well (384-well format) in 20 μl of Opti MEM I medium. A preincubation with the antagonist or the vehicle for 30 min at 37° C. and 5% CO2 was followed by 60 minutes of stimulation with CXCL8 at 37° C. and 5% CO2. The cells were then placed at ambient temperature for 30 minutes. The PathHunter detection reagent (DiscoveRx Corporation) was added. […] The data were analyzed by means of a non-linear curve procedure using the XLFit4 exploitation software (IDBS) and the IC50 values were determined.

CXCR2 receptor = CXCR2 receptor (Homo sapiens (Human), UniProt P25025); assay: β-arrestin 2 recruitment test, PathHunter HEK293-CXCR2 cells stimulated with CXCL8; assay type: cell-based; conditions: CXCL8 stimulation
Chain of CXCR2 receptor (P25025 whole entry): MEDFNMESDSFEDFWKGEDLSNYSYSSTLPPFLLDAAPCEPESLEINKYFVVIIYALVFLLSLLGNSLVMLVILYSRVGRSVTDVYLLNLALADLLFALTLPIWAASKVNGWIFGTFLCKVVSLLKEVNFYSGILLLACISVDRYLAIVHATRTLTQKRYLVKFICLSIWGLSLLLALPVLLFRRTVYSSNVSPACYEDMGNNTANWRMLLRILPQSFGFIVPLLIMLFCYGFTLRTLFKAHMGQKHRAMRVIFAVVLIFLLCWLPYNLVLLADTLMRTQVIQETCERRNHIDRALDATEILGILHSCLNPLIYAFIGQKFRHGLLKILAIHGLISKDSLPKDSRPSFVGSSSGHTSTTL
Protocol: as §1, §2, §3

Chain of CXCR1 receptor (P25024 whole entry): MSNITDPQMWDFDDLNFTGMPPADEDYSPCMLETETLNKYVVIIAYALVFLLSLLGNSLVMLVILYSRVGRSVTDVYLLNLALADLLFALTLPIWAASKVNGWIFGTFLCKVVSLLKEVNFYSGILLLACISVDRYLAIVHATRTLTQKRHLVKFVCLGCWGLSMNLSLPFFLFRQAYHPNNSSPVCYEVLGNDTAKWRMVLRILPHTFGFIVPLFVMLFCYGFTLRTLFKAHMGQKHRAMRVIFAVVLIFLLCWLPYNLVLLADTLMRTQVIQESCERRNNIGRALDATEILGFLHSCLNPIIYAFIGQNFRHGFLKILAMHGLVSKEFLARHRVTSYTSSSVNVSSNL

| melting point | IC50 (CXCR1 receptor) | IC50 (CXCR2 receptor) | SMILES |
| --- | --- | --- | --- |
| 130 to 132 °C | – | – | COC(=O)C1CCCCN1C(=O)c1cccc(Nc2c(NC(c3ccc(C)o3)C3(C)COC3)c(=O)c2=O)c1 (stereo not drawn) |
| 196 to 198 °C | – | – | Cc1ccc(C(Nc2c(Nc3cccc(C(=O)N(C)C)c3O)c(=O)c2=O)C2(C)COC2)o1 (stereo not drawn) [Example 1, 2-hydroxy-N,N-dimethyl-3-(2-{[(5-methylfuran-2-yl)-(3-methyloxetan-3-yl)methyl]amino}-3,4-dioxocyclobut-1-enylamino)benzamide] |
| 186 to 188 °C | 1600 nM | 272 nM | Cc1ccc(C(Nc2c(Nc3cccc(C(=O)N(C)C)c3O)c(=O)c2=O)C2(CF)COC2)o1 (stereo not drawn) [Example 2, 3-(2-{[(3-fluoromethyloxetan-3-yl)-(5-methyl-furan-2-yl)methyl}amino]-3,4-dioxocyclobut-1-enylamino)-2-hydroxy-N,N-dimethylbenzamide] |
| 180 to 185 °C | – | – | Cc1ccc(C(Nc2c(Nc3cccc(C(=O)O)c3O)c(=O)c2=O)C2(C)COC2)o1 (stereo not drawn) [Example 4, 2-hydroxy-3-(2-{[(5-methylfuran-2-yl)-(3-methyloxetan-3-yl)methyl]amino}-3,4-dioxocyclobut-1-enylamino)benzoic acid] |
| 162 to 164 °C | 2410 nM | 100 nM | Cc1ccc(C(Nc2c(Nc3cccc(C(=O)N4CCC[C@@H]4C(=O)OC(C)(C)C)c3O)c(=O)c2=O)C2(C)COC2)o1 (stereo partly drawn) [Example 7, (R)-1-[2-hydroxy-3-(2-{[(5-methylfuran-2-yl)-(3-methyloxetan-3-yl)methyl]amino}-3,4-dioxocyclobut-1-enylamino)benzoyl]pyrrolidine-2-carboxylic acid tert-butyl ester] |
| 129 to 131 °C | 6510 nM | 549 nM | Cc1ccc(C(Nc2c(Nc3cccc(C(C)O)c3O)c(=O)c2=O)C2(C)COC2)o1 (stereo not drawn) [Example 11, 3-[2-hydroxy-3-(1-hydroxyethyl)phenylamino]-4-{[(5-methylfuran-2-yl)-(3-methyloxetan-3-yl)methyl]amino}cyclobut-3-ene-1,2-dione] |
| 178 to 180 °C | – | – | Cc1ccc(C(Nc2c(Nc3cccc4nn[nH]c34)c(=O)c2=O)C2(C)COC2)o1 (stereo not drawn) [Example 23, 3-(3H-benzotriazol-4-ylamino)-4-{[(5-methylfuran-2-yl)-(3-methyloxetan-3-yl)methyl]amino}cyclobut-3-ene-1,2-dione] |
| 162 to 165 °C | – | – | Cc1ccc(C(Nc2c(Nc3cccc(C(=O)N(C)C)c3O)c(=O)c2=O)C2(C)CN(C(=O)OC(C)(C)C)C2)o1 (stereo not drawn) [Example 26, tert-butyl 3-[[2-(3-dimethylcarbamoyl-2-hydroxyphenylamino)-3,4-dioxo-cyclobut-1-enylamino]-(5-methylfuran-2-yl)methyl]-3-methylazetidine-1-carboxylate] |
| – | 5540 nM | 475 nM | COc1cccc(C(Nc2c(Nc3cccc(C(=O)N(C)C)c3O)c(=O)c2=O)C2(C)COC2)c1 (stereo not drawn) [Example 28, 3-(2-{[(3-methyloxetan-3-yl)-(3-methoxyphenyl)methyl]-amino}-3,4-dioxocyclobut-1-enylamino)-2-hydroxy-N,N-dimethylbenzamide] |
| – | 2240 nM | 349 nM | CN(C)C(=O)c1cccc(Nc2c(NC(c3ccc4c(c3)OCO4)C3(C)COC3)c(=O)c2=O)c1O (stereo not drawn) [Example 30, 3-(2-{[benzo[1,3]dioxol-5-yl-(3-methyloxetan-3-yl)methyl]amino}-3,4-dioxocyclobut-1-enylamino)-2-hydroxy-N,N-dimethylbenzamide] |
| – | 1610 nM | 106 nM | CN(C)C(=O)c1cccc(Nc2c(NC(c3cccs3)C3(C)COC3)c(=O)c2=O)c1O (stereo not drawn) [Example 34, 2-hydroxy-N,N-dimethyl-3-(2-{[(3-methyloxetan-3-yl)thiophen-2-ylmethyl]amino}-3,4-dioxocyclobut-1-enylamino)benzamide] |
| – | 1710 nM | 198 nM | CN(C)C(=O)c1cccc(Nc2c(NC(c3ccco3)C3(C)COC3)c(=O)c2=O)c1O (stereo not drawn) [Example 36, 3-(2-{[furan-2-yl-(3-methyloxetan-3-yl)methyl]amino}-3,4-dioxocyclobut-1-enylamino)-2-hydroxy-N,N-dimethylbenzamide] |
| – | 827 nM | 32 nM | Cc1coc(C(Nc2c(Nc3cccc(C(=O)N(C)C)c3O)c(=O)c2=O)C2(C)COC2)c1 (stereo not drawn) [Example 37a, 2-hydroxy-N,N-dimethyl-3-(2-{[(4-methylfuran-2-yl)-(3-methyloxetan-3-yl)methyl]amino}-3,4-dioxocyclobut-1-enylamino)benzamide] |
| – | 7690 nM | 207 nM | Cc1ccoc1C(Nc1c(Nc2cccc(C(=O)N(C)C)c2O)c(=O)c1=O)C1(C)COC1 (stereo not drawn) [Example 37b, 2-Hydroxy-N,N-dimethyl-3-(2-{[(3-methylfuran-2-yl)-(3-methyloxetan-3-yl)methyl]amino}-3,4-dioxocyclobut-1-enylamino)benzamide] |
| – | 322 nM | 25 nM | CC(C)c1coc(C(Nc2c(Nc3cccc(C(=O)N(C)C)c3O)c(=O)c2=O)C2(C)COC2)c1 (stereo not drawn) [Example 38, 2-hydroxy-N,N-dimethyl-3-(2-{[(4-isopropylfuran-2-yl)-(3-methyloxetan-3-yl)methyl]amino}-3,4-dioxocyclobut-1-enylamino)benzamide] |
| – | 10000 nM | 1040 nM | COc1ccc(Nc2c(NC(c3ccc(C)o3)C3(C)COC3)c(=O)c2=O)c(O)n1 (stereo not drawn) [Example 39, 3-(2-hydroxy-6-mèthoxypyridin-3-ylamino)-4-{[(5-methylfuran-2-yl)-(3-methyloxetan-3-yl)methyl]amino}cyclobut-3-ene-1,2-dione] |
| – | 5220 nM | 502 nM | Cc1ccc(C(Nc2c(Nc3ccc(Cl)nc3O)c(=O)c2=O)C2(C)COC2)o1 (stereo not drawn) [Example 40, 3-(6-chloro-2-hydroxypyridin-3-ylamino)-4-{[(5-methylfuran-2-yl)-(3-methyloxetan-3-yl)methyl]amino}cyclobut-3-ene-1,2-dione] |
| 148 to 158 °C | – | – | COC(=O)[C@@H]1CCCN1C(=O)c1cccc(Nc2c(NC(c3ccc(C)o3)C3(C)COC3)c(=O)c2=O)c1Cl (stereo partly drawn) [Example 46, methyl (S)-1-[2-chloro-3-(2-{[(5-methylfuran-2-yl)-(3-methyloxetan-3-yl)methyl]amino}-3,4-dioxocyclobut-1-enylamino)benzoyl]pyrrolidine-2-carboxylate] |
| – | 566 nM | 26 nM | Cc1ccc([C@H](Nc2c(Nc3cccc(C(=O)N(C)CC(F)(F)F)c3O)c(=O)c2=O)C2(C)COC2)o1 [Example 48, 2-hydroxy-N-methyl-3-(2-{[(R)-(5-methylfuran-2-yl)-(3-methyloxetan-3-yl)methyl]amino}-3,4-dioxocyclobut-1-enylamino)-N-(2,2,2-trifluoroethyl)benzamide] |
| – | 650 nM | 72 nM | COC(=O)CN(C)C(=O)c1cccc(Nc2c(N[C@@H](c3ccc(C)o3)C3(C)COC3)c(=O)c2=O)c1O [Example 51, methyl {[2-hydroxy-3-(2-{[(R)-(5-methylfuran-2-yl)-(3-methyloxetan-3-yl)methyl]amino}-3,4-dioxocyclobut-1-enylamino)benzoyl]methylamino}acetate] |
| – | 897 nM | 373 nM | Cc1ccc([C@H](Nc2c(Nc3ccc(Cl)c(C(=O)N(C)C)c3O)c(=O)c2=O)C2(C)COC2)o1 [Example 52, 6-chloro-2-hydroxy-N,N-dimethyl-3-(2-{[(R)-(5-methylfuran-2-yl)-(3-methyloxetan-3-yl)methyl]amino}-3,4-dioxocyclobut-1-enylamino)benzamide] |
